This passage reports IC50 results from ChEMBL document CHEMBL5244261, “Insights of tankyrases: A novel target for drug discovery” (Eur J Med Chem, 2020).

The structures appear in SMILES notation.

This experiment has as its target T1, Poly [ADP-ribose] polymerase tankyrase-1 (Homo sapiens, UniProt O95271).
T1 sequence (O95271 whole entry): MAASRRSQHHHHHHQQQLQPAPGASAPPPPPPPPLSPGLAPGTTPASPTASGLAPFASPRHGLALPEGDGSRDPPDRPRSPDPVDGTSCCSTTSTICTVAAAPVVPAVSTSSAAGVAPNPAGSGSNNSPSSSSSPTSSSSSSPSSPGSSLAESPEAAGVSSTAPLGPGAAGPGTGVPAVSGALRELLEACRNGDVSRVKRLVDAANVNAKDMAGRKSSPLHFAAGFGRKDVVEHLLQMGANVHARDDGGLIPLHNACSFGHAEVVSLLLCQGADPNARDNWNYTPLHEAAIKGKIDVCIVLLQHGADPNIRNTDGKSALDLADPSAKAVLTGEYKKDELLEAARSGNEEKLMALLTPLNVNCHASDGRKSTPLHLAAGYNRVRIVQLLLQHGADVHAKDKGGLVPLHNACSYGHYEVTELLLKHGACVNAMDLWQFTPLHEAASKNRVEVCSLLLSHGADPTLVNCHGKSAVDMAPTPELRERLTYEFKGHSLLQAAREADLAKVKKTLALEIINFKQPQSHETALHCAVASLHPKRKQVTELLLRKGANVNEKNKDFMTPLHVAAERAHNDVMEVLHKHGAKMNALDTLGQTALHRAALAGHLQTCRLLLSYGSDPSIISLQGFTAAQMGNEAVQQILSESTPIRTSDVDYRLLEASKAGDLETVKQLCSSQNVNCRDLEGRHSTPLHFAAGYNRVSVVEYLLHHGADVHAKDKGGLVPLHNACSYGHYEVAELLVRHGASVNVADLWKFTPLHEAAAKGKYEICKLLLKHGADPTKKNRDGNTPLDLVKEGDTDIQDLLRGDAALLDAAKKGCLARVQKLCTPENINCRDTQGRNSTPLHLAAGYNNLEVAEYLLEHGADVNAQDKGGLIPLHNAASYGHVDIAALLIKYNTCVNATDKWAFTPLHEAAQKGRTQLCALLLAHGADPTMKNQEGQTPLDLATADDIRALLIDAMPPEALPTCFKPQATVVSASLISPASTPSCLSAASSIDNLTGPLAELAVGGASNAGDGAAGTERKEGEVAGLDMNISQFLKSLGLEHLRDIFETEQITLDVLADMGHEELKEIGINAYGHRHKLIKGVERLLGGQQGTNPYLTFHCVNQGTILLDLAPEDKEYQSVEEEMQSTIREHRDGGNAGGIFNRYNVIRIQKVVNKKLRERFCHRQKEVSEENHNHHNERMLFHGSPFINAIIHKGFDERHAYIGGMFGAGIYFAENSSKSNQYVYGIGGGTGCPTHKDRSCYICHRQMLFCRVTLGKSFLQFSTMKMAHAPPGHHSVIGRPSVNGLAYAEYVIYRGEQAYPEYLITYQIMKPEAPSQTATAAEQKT
Description: Inhibition of human recombinant […] TNKS1 (1030 to 1317 residues) expressed in Escherichia coli assessed as inhibition by fluorescence based analysis.
The IC50 is the concentration that gives 50% inhibition. On to `O=C(Nc1ccc(-c2nc3ccccc3c(=O)[nH]2)cc1)c1cccs1`, for which the IC50 worked out at 21 nM.
For `COC(=O)c1ccc(-c2nc3ccccc3c(=O)[nH]2)cc1` the value was 23 nM; for `O=C1OCCN1c1ccc(-c2nc3ccccc3c(=O)[nH]2)cc1`, 15 nM.
For `CC1(c2ccc(-c3nc4ccccc4c(=O)[nH]3)cc2)NC(=O)NC1=O` (stereo not given) the value was 5 nM; for `NS(=O)(=O)c1ccc(-c2nc3ccccc3c(=O)[nH]2)cc1`, 12 nM.
